According to patent publication US8178522B2, “Thiazoles” (Hoffmann-La Roche Inc., priority 2009, dated 2012):
pKi: −log10 of the molar value. Where two headings read alike, the source gives them in different places.

Biological target: T1, GABA A α5 (α5β3γ2) (Homo sapiens, UniProt P18507+P31644)
T1 construct: expressed in transfected cells; host or cells: HEK293, transiently transfected; membrane preparation
Assay: [3H]flumazenil competition binding, human GABA A α5 receptor
Method in brief: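 Competition with [3H]flumazenil at membranes from HEK293 cells transiently expressing human α5β3γ2, in Krebs-tris buffer pH 7.5. Equilibrium 1 hour at 4° C, filtration with ice-cold 50 mM Tris wash, scintillation counting. Ki values are means of two determinations.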

[1] = human receptor α5β3γ2 transiently transfected in HEK293 cells, competition for [3H]flumazenil 0.5 nM, 1 hour at 4° C., means of two determinations, read-out: hKi GABA A α5

Structure (SMILES)	pKi [1]	pKi
Cc1onc(-c2ccccn2)c1CCc1ncc(C(=O)NC2CCOCC2)s1 [Example 24, 2-[2-(5-Methyl-3-pyridin-2-yl-isoxazol-4-yl)-ethyl]-thiazole-5-carboxylic acid (tetra-hydro-pyran-4-yl)-amide]	7.73	–
CCCCc1noc(C)c1/C=C/c1nc(C)c(C(=O)NC2CCOCC2)s1 [Example 96, 2-[(E)-2-(3-Butyl-5-methyl-isoxazol-4-yl)-vinyl]-4-methyl-thiazole-5-carboxylic acid (tetrahydro-pyran-4-yl)-amide]	8.82	–
CCCCc1noc(C)c1CCc1ncc(C(=O)NC2CCOC2)s1 (centres unmarked) [Example 60, 2-[2-(3-Butyl-5-methyl-isoxazol-4-yl)-ethyl]-thiazole-5-carboxylic acid (tetrahydro-furan-3-yl)-amide]	7.45	–
CCCCc1noc(C)c1/C=C/c1nc(C)c(C(=O)N2CC(F)(F)C2)s1 [Example 108, {2-[(E)-2-(3-Butyl-5-methyl-isoxazol-4-yl)-vinyl]-4-methyl-thiazol-5-yl}-(3,3-difluoro-azetidin-1-yl)-methanone]	7.61	–
CCCCc1noc(C)c1/C=C/c1nc(C)c(C(=O)NC2CCCC2O)s1 (stereo in doubt) [Example 114, 2-[(E)-2-(3-Butyl-5-methyl-isoxazol-4-yl)-vinyl]-4-methyl-thiazole-5-carboxylic acid ((1R,2R)-2-hydroxy-cyclopentyl)-amide]	8.19	–
Cc1onc(-c2ccc(F)cn2)c1/C=C/c1ncc(C(=O)NC(C)(C)CO)s1 [Example 80, 2-{(E)-2-[3-(5-Fluoro-pyridin-2-yl)-5-methyl-isoxazol-4-yl]-vinyl}-thiazole-5-carboxylic acid (2-hydroxy-1,1-dimethyl-ethyl)-amide]	7.76	–
CCCCc1noc(C)c1/C=C/c1nc(C)c(C(=O)NC(C)CO)s1 (racemic) [Example 97, Rac-2-[(E)-2-(3-Butyl-5-methyl-isoxazol-4-yl)-vinyl]-4-methyl-thiazole-5-carboxylic acid (2-hydroxy-1-methyl-ethyl)-amide]	8.33	–
CCCCc1noc(C)c1/C=C/c1nc(C)c(C(=O)N[C@@H](CC)CO)s1 [Example 106, 2-[(E)-2-(3-Butyl-5-methyl-isoxazol-4-yl)-vinyl]-4-methyl-thiazole-5-carboxylic acid ((S)-1-hydroxymethyl-propyl)-amide]	8.68	–
CCCCc1noc(C)c1/C=C/c1ncc(C(=O)NC(C)C)s1 [Example 124, 2-[(E)-2-(3-Butyl-5-methyl-isoxazol-4-yl)-vinyl]-thiazole-5-carboxylic acid isoprop-ylamide]	8.26	–
CCCCc1noc(C)c1CCc1nc(C)c(C(=O)NC(CO)CO)s1 [Example 53, 2-[2-(3-Butyl-5-methyl-isoxazol-4-yl)-ethyl]-4-methyl-thiazole-5-carboxylic acid (2-hydroxy-1-hydroxymethyl-ethyl)-amide]	7.73	–
Cc1nc(CCc2c(-c3ccccn3)noc2C)sc1C(=O)NC(C)C [Example 10, 4-Methyl-2-[2-(5-methyl-3-pyridin-2-yl-isoxazol-4-yl)-ethyl]-thiazole-5-carboxylic acid isopropylamide]	8.37	–
Cc1nc(CCc2c(-c3ccccn3)noc2C)sc1C(=O)NCCO [Example 14, 4-Methyl-2-[2-(5-methyl-3-pyridin-2-yl-isoxazol-4-yl)-ethyl]-thiazole-5-carboxylic acid (2-hydroxy-ethyl)-amide]	7.85	–
Cc1nc(CCc2c(-c3ccc(F)cn3)noc2C)sc1C(=O)NC1CCOCC1 [Example 31, 2-{2-[3-(5-Fluoro-pyridin-2-yl)-5-methyl-isoxazol-4-yl]ethyl}-4-methyl-thiazole-5-carboxylic acid (tetrahydro-pyran-4-yl)-amide]	8.28	–
Cc1onc(-c2ccc(F)cn2)c1/C=C/c1ncc(C(=O)NCCO)s1 [Example 85, 2-{(E)-2-[3-(5-Fluoro-pyridin-2-yl)-5-methyl-isoxazol-4-yl]-vinyl}-thiazole-5-carboxylic acid (2-hydroxy-ethyl)-amide]	8.29	–
CCCCc1noc(C)c1/C=C/c1nc(C)c(C(=O)NC2CCOC2)s1 (centres unmarked) [Example 94, 2-[(E)-2-(3-Butyl-5-methyl-isoxazol-4-yl)-vinyl]-4-methyl-thiazole-5-carboxylic acid (tetrahydro-furan-3-yl)-amide]	8.92	–
Cc1nc(/C=C/c2conc2-c2ccc(F)cn2)sc1C(=O)NC1CC1 [Example 91, 2-{(E)-2-[3-(5-Fluoro-pyridin-2-yl)-isoxazol-4-yl]vinyl}-4-methyl-thiazole-5-carboxylic acid cyclopropylamide]	7.45	–
CCCCc1noc(C)c1CCc1nc(C)c(C(=O)NC(C)C)s1 [Example 48, 2-[2-(3-Butyl-5-methyl-isoxazol-4-yl)-ethyl]-4-methyl-thiazole-5-carboxylic acid iso-propylamide]	7.64	–
Cc1nc(CCc2c(-c3ccc(F)cn3)noc2C)sc1C(=O)NC1CC1 [Example 33, 2-{2-[3-(5-Fluoro-pyridin-2-yl)-5-methyl-isoxazol-4-yl]-ethyl}-4-methyl-thiazole-5-carboxylic acid cyclopropylamide]	8.05	–
CNC(=O)c1cnc(/C=C/c2c(-c3ccc(F)cn3)noc2C)s1 [Example 88, 2-{(E)-2-[3-(5-Fluoro-pyridin-2-yl)-5-methyl-isoxazol-4-yl]-vinyl}-thiazole-5-carboxylic acid methylamide]	8.21	–
Cc1onc(-c2ccccn2)c1CCc1ncc(C(=O)NC2CCS(=O)(=O)C2)s1 (centres unmarked) [Example 27, 2-[2-(5-Methyl-3-pyridin-2-yl-isoxazol-4-yl)-ethyl]-thiazole-5-carboxylic acid (1,1-dioxo-tetrahydrothiophen-3-yl)-amide]	7.85	–
Cc1nc(CCc2c(-c3ccccc3)noc2C)sc1C(=O)NC(C)C [Example 1, 4-Methyl-2-[2-(5-methyl-3-phenyl-isoxazol-4-yl)-ethyl]-thiazole-5-carboxylic acid iso-propylamide]	8.24	–
CCCCc1noc(C)c1/C=C/c1nc(C)c(C(=O)Nc2cnn(C)c2)s1 [Example 112, 2-[(E)-2-(3-Butyl-5-methyl-isoxazol-4-yl)-vinyl]-4-methyl-thiazole-5-carboxylic acid (1-methyl-1-pyrazol-4-yl)-amide]	8.89	–
Cc1onc(-c2ccc(F)cn2)c1/C=C/c1ncc(C(=O)NCC(F)(F)F)s1 [Example 84, 2-{(E)-2-[3-(5-Fluoro-pyridin-2-yl)-5-methyl-isoxazol-4-yl]-vinyl}-thiazole-5-carboxylic acid (2,2,2-trifluoro-ethyl)-amide]	–	8.39
